Measured values: patent US20200022963A1, “PHARMACEUTICAL COMPOSITION COMPRISING BETAHISTINE” (Otolanum AG, priority 2017, published 2020)
Where two headings read alike, the source gives them in different places.

Test: Pharmacokinetic profile after single oral, intranasal and intravenous betahistine in beagle dogs, Example 5
Format: in vivo
Details: dog; for concentration at 0 h / concentration at 5 min / concentration at 0.167 h / concentration at 0.333 h / concentration at 0.5 h / concentration at 1 h / concentration at 2 h / concentration at 3 h / concentration at 6 h / concentration at 24 h: Betahistine Plasma Concentration
Protocol: In this study, the pharmacokinetic profile of betahistine was evaluated after a single dose administration of betahistine in male and female beagle dogs (age 5-7 months; weight of 5-11 kg, within a range of 3 kg for each sex) for three routes of administration: oral, intranasal, and intravenous.
On Day 1 of the study, betahistine (BH) was delivered orally at a dose of 12 mg/kg, 24 mg/kg, or 48 mg/kg. Each treatment group comprised 8 animals (4 males and 4 females). For pharmacokinetic assessment, plasma samples were collected prior to dosing, and then at 5, 10, 20 and 30 min, 1, 2, 3, 6, 24 hours after dosing.
On Day 8 of the study, the animals that received oral BH at a dose of 12 mg/kg were administered the test betahistine composition intranasally at a dose of 40 mg betahistine dihydrochloride; the animals that received oral BH at a dose of 24 mg/kg were administered the test betahistine composition intranasally at a dose of 80 mg betahistine dihydrochloride; and the animals that received oral BH at a dose of 48 mg/kg were administered the test betahistine composition intranasally at a dose of 120 mg betahistine dihydrochloride. The test betahistine composition was delivered intranasally in a single dose via an Aptar nasal spray pump device at a total dose level of 40, 80 and 120 mg of betahistine dihydrochloride. Plasma samples were collected prior to dosing, and then at 5, 10, 20 and 30 min, 1, 2, 3, 6, 24 hours after dosing.
On Day 15 of the study, the animals that received oral BH at a dose of 12 mg/kg and the test betahistine composition intranasally at a dose of 40 mg betahistine dihydrochloride were administered a bolus intravenous injection of betahistine at a dose of 0.44 mg/kg. Plasma samples were collected prior to dosing, and then at 5, 10, 20 and 30 min, 1, 2, 3, 6, 24 hours after dosing.
Betahistine 13CD3 dihydrochloride and 2-pyridylacetic acid-D4 hydrochloride were used as respective internal standards. The calibration range for betahistine was 0.05-250 ng/mL and for 2-PAA 2.00-3000 ng/mL using a plasma sample volume of 0.50 mL.
For determination of betahistine, the method involved liquid-liquid extraction, for 2-PAA, the method involved protein precipitation. Plasma samples were prepared for betahistine by extraction under basic conditions with an organic solvent, then the organic phase was dried, reconstituted and transferred for LC/MS-MS analysis. […] Sample analysis was performed using reversed phase chromatography.

[1] = both sexes, beagle, in vivo, iv, 0.44 mg/kg
[2] = both sexes, beagle, in vivo, po, 12 mg/kg
[3] = both sexes, beagle, in vivo, po, 24 mg/kg
[4] = both sexes, beagle, in vivo, po, 48 mg/kg
[5] = female, beagle, in vivo, inhaled or intranasal, 6 mg/kg
[6] = female, beagle, in vivo, inhaled or intranasal, 13 mg/kg
[7] = female, beagle, in vivo, inhaled or intranasal, 17.7 mg/kg
[8] = female, beagle, in vivo, iv, 0.44 mg/kg
[9] = female, beagle, in vivo, po, 12 mg/kg
[10] = female, beagle, in vivo, po, 24 mg/kg

CNCCc1ccccn1 [betahistine]
Cmax (beagle, in vivo, oral BH 48 mg/kg, male, Day 1, read-out: Cmax): 102 ± 30.2 ng/mL
concentration at 0 h [1]: 0.0825 ng/mL
concentration at 5 min [1]: 50.9 ng/mL
concentration at 0.167 h [1]: 22 ng/mL
concentration at 0.333 h [1]: 7.03 ng/mL
concentration at 0.5 h [1]: 4.82 ng/mL
concentration at 1 h [1]: 0.308 ng/mL
concentration at 2 h [1]: 0.633 ng/mL
concentration at 3 h [1]: 0.0878 ng/mL
concentration at 6 h [1]: 0.849 ng/mL
concentration at 24 h [1]: 0.202 ng/mL
concentration at 0 h [2]: 0 ng/mL
concentration at 5 min [2]: 1.97 ng/mL
concentration at 0.167 h [2]: 4.6 ng/mL
concentration at 0.333 h [2]: 7.96 ng/mL
concentration at 0.5 h [2]: 13.4 ng/mL
concentration at 1 h [2]: 9.86 ng/mL
concentration at 2 h [2]: 0.36 ng/mL
concentration at 3 h [2]: 0.0181 ng/mL
concentration at 6 h [2]: 0.00797 ng/mL
concentration at 24 h [2]: 0.0105 ng/mL
concentration at 0 h [3]: 0 ng/mL
concentration at 5 min [3]: 5 ng/mL
concentration at 0.167 h [3]: 5.15 ng/mL
concentration at 0.333 h [3]: 15.5 ng/mL
concentration at 0.5 h [3]: 14.9 ng/mL
concentration at 1 h [3]: 31.9 ng/mL
concentration at 2 h [3]: 2.83 ng/mL
concentration at 3 h [3]: 1.16 ng/mL
concentration at 6 h [3]: 0.21 ng/mL
concentration at 24 h [3]: 0 ng/mL
concentration at 0 h [4]: 0 ng/mL
concentration at 5 min [4]: 12.1 ng/mL
concentration at 0.167 h [4]: 22.5 ng/mL
concentration at 0.333 h [4]: 12.9 ng/mL
concentration at 0.5 h [4]: 26.5 ng/mL
concentration at 1 h [4]: 56.5 ng/mL
concentration at 2 h [4]: 21.5 ng/mL
concentration at 3 h [4]: 6.57 ng/mL
concentration at 6 h [4]: 0.439 ng/mL
concentration at 24 h [4]: 0 ng/mL
AUC(0-t) (both sexes, beagle, in vivo, IV bolus BH 0.44 mg/kg, sex-combined, Day 15, read-out: AUC(0-t)): 23 ng·h/mL
Absolute Bioavailability (% F), AUC(0-t)/D (oral 24 mg/kg vs IV bolus 0.44 mg/kg, sex-combined): 3.01%
AUC(0-t)/D [5]: 30.2 ± 9.31 hr*ng/mL/(mg/kg)
Cmax [5]: 770 ng/mL
Cmax/D [5]: 128 ± 42.1 ng/mL/(mg/kg)
Intranasal AUC/dose [5]: 30.2 (h · ng/mL)/(mg/kg)
Tmax [5]: 4.8 min
AUC(0-t) (female, beagle, in vivo, inhaled or intranasal, 6 mg/kg, AUC(0-6)): 180 ± 57.3 ng·h/mL
AUC(0-t) (female, beagle, in vivo, inhaled or intranasal, 6 mg/kg, AUC(0-t)): 181 ± 55.8 ng·h/mL
AUC(0-inf) [6]: 480 ± 336 ng·h/mL
AUC(0-t)/D [6]: 33.8 ± 21.8 hr*ng/mL/(mg/kg)
Cmax [6]: 1790 ng/mL
Cmax/D [6]: 138 ± 102 ng/mL/(mg/kg)
Intranasal AUC/dose [6]: 33.8 (h · ng/mL)/(mg/kg)
Tmax [6]: 8.4 min
AUC(0-t) (female, beagle, in vivo, inhaled or intranasal, 13 mg/kg, AUC(0-6)): 432 ± 281 ng·h/mL
AUC(0-t) (female, beagle, in vivo, inhaled or intranasal, 13 mg/kg, AUC(0-t)): 440 ± 283 ng·h/mL
AUC(0-inf) [7]: 302 ng·h/mL
AUC(0-t)/D [7]: 16.4 ± 0.479 hr*ng/mL/(mg/kg)
Cmax [7]: 1330 ng/mL
Cmax/D [7]: 75.1 ± 17.0 ng/mL/(mg/kg)
Intranasal AUC/dose [7]: 16.4 (h · ng/mL)/(mg/kg)
Tmax [7]: 4.8 min
AUC(0-t) (female, beagle, in vivo, inhaled or intranasal, 17.7 mg/kg, AUC(0-6)): 277 ± 7.99 ng·h/mL
AUC(0-t) (female, beagle, in vivo, inhaled or intranasal, 17.7 mg/kg, AUC(0-t)): 290 ± 8.47 ng·h/mL
AUC(0-inf) [8]: 14.3 ng·h/mL
AUC(0-t)/D [8]: 60.3 ± 40.0 hr*ng/mL/(mg/kg)
Cmax [8]: 43.7 ng/mL
Cmax/D [8]: 99.3 ng/mL/(mg/kg)
Tmax [8]: 5.4 min
Vd [8]: 10.6 L/kg
clearance [8]: 513 mL/min/kg
half-life [8]: 14.3 min
AUC(0-t) (female, beagle, in vivo, iv, 0.44 mg/kg, AUC(0-6)): 16.3 ng·h/mL
AUC(0-t) (female, beagle, in vivo, iv, 0.44 mg/kg, AUC(0-t)): 26.5 ng·h/mL
concentration at 0 h [8]: 0.0551 ng/mL
concentration at 5 min [8]: 43.7 ng/mL
concentration at 0.167 h [8]: 14.8 ng/mL
concentration at 0.333 h [8]: 6 ng/mL
concentration at 0.5 h [8]: 4.06 ng/mL
concentration at 1 h [8]: 0.268 ng/mL
concentration at 2 h [8]: 0.274 ng/mL
concentration at 3 h [8]: 0.095 ng/mL
concentration at 6 h [8]: 0.648 ng/mL
concentration at 24 h [8]: 0.405 ng/mL
AUC(0-6)/D [9]: 1.33 ± 0.483 hr*ng/mL/(mg/kg)
Cmax [9]: 14.7 ± 4.56 ng/mL
Cmax/D [9]: 1.22 ± 0.380 ng/mL/(mg/kg)
Oral AUC/dose [9]: 1.33 (h · ng/mL)/(mg/kg)
Tmax [9]: 60 min
AUC(0-t) (female, beagle, in vivo, po, 12 mg/kg, AUC(0-t)): 15.9 ± 5.8 ng·h/mL
concentration at 0 h [9]: 0 ng/mL
concentration at 5 min [9]: 2.59 ng/mL
concentration at 0.167 h [9]: 6.46 ng/mL
concentration at 0.333 h [9]: 10.1 ng/mL
concentration at 0.5 h [9]: 7.8 ng/mL
concentration at 1 h [9]: 14.1 ng/mL
concentration at 2 h [9]: 0.263 ng/mL
concentration at 3 h [9]: 0 ng/mL
concentration at 6 h [9]: 0 ng/mL
concentration at 24 h [9]: 0 ng/mL
AUC(0-6)/D [10]: 1.71 ± 0.748 hr*ng/mL/(mg/kg)
AUC(0-inf) [10]: 27.7 ng·h/mL
Cmax [10]: 38 ± 26.1 ng/mL
Cmax/D [10]: 1.58 ± 1.09 ng/mL/(mg/kg)
Oral AUC/dose [10]: 1.71 (h · ng/mL)/(mg/kg)
Tmax [10]: 60 min
half-life [10]: 84.6 min
AUC(0-t) (female, beagle, in vivo, po, 24 mg/kg, AUC(0-6)): 26.2 ng·h/mL
AUC(0-t) (female, beagle, in vivo, po, 24 mg/kg, AUC(0-t)): 41 ± 17.9 ng·h/mL
concentration at 0 h [10]: 0 ng/mL
concentration at 5 min [10]: 5.32 ng/mL
concentration at 0.167 h [10]: 5.24 ng/mL
concentration at 0.333 h [10]: 7.13 ng/mL
concentration at 0.5 h [10]: 12 ng/mL
concentration at 1 h [10]: 36.8 ng/mL
concentration at 2 h [10]: 3.58 ng/mL
concentration at 3 h [10]: 1.71 ng/mL
